Key:
diabetic model mice = assay: Streptozotocin-induced diabetic model mice, FITC dextran in the eyes as index of vascular permeability; assay type: in vivo, mouse; settings: atRA 1 mg/kg intraperitoneally
Description: Male 5 to 6 week-old C57/BL6 mice were administered with streptozotocin and diabetes was chemically induce in these model mice. To these diabetic model mice, retinoids were administered to evaluate clinical effectiveness. For reference, mice without the diabetic induction were used as control.
Experimental groups: 1. Control (group of non-induction of diabetes) 2. Diabetic group (non-treated group) 3. Diabetic group (atRA-treated group) 4. Diabetic group (Am580-treated group) 5. Diabetic group (Am80-treated group)
The onset of diabetes was confirmed by periodical measurement of glucose in urine, and after all the mice became strongly positive, by measurement of blood glucose. The mice of 4 to 6 week-pathological period with diabetes were used. […] Mice were divided into 4 groups as mentioned above for the treatment. The treatment were performed by administrating atRA (1 mg/kg), Am580 (3.75 mg/kg), and Am80 (4.5 mg/kg) intraperitoneally every other day for 4 days. […] As the index of the permeability, the FITC in the eyes was measured, and the value was standardized with the FITC amount contained in cardiac blood to minimize a potential difference between each amount of dose.
As biological parameters, blood sugar (BS) and urine sugar (US) were evaluated.

[1] = test system: MDCK (Madin Darby Canine Kidney) cell; assay: Barrier function evaluation with MDCK cells, same parameters as Example 2; assay type: cell-based, dog
Excerpt: The vascular endothelial cell used in Example 2 is the primary culture strain obtained from the bovine brain, which has an advantage of capable of reproducing in vitro conditions more similar to those in a living body. However, unlike those called as cell lines, the strain of the primary cultured cell has limited number of division and a slow division rate, and therefore has an aspect of unsuitability for an experimental system that requires repeated examination. Accordingly, MDCK (Madin Darby Canine Kidney) cell as dog-derived kidney tubule cell (easily available commercially) was used, which cell is optimum for the evaluation of the barrier function and has been experienced of being already used in variety of experimental systems. The effect of synthetic retinoids was evaluated with the same parameter as those in Example 2. The experimental groups in FIG. 5 are as follows:
1. Non-treated group 2. atRA (RARα agonist) 3. Am80 (RARα agonist) 4. Am580 (RARα agonist)
In FIG. 5, the non-treated group (control) is defined as “1”, and relative differences thereto are shown as graphs.

GDNF [2] = assay: GDNF expression in primary cultured human astrocyte; assay type: cell-based; settings: for GDNP expression / suppression of the vascular permeability (expression of GDNF divided by expression of VEGF): human astrocyte; for GDNP expression: FIG. 6; for suppression of the vascular permeability (expression of GDNF divided by expression of VEGF): non-treated group as inner control; for expression of GDNF mRNA: preliminary experiment, see FIG. 6
Description: (§1) In Examples 1 and 2, U373MG cells, a cell line having the characteristic as astrocyte, was used for convenience of the experiment. […] Therefore, studies were made to evaluate whether or not the enhancement of the expression of GDNF by the retinoid can be observed also in the system using human astrocyte. The astrocyte used in the experiment was a primary cultured cell isolated from the human brain, and was purchased from Cambrex Corporation, USA. This means provides an advantage that observation is achievable under environments closer to those in vivo.
Whilst, the expression of VRGF that is a strong vascular hyperpermeability factor was suppressed in the treated groups. The level of suppression of the vascular permeability in the treated groups is represented by a relative amount of the two factors that define permeability, specifically, a value obtained by dividing a value of the expression of GDNF that is the permeability-suppressing factor by a value of the expression of VEGF that is a hyperpermeability factor. In this case, a value of the expression of each of non-treated groups is used as an inner control, and an amount of the expression of the treated groups is calculated from the concentration on the gel and the area. […] The experimental groups in FIG. 6 are as follows, and the upper figure indicates the photographs of the gel, the lower figure indicates visualized differences of relative amounts obtained by the quantification thereof.

GDNF [3] = assay: Suppression of GDNF expression by AGE-2 in human astrocyte (RT-PCR, ELISA); assay type: cell-based; settings: p<0.001; for inhibition of the effect of AGE-2 to suppress the expression of GDNF, protein level: combination with AGE-2, ELISA of cell culture medium; for inhibition of the effect of AGE-2 to suppress the expression of GDNF, mRNA level: combination with AGE-2, RT-PCR
Description: Human astrocyte was treated with AGE-2 alone, or combinations of AGE-2 with atRA or Am580, and alterations in the expression of GDNF was evaluated in the same manner as FIG. 6.

VEGF = VEGF expression in primary cultured human astrocyte; assay type: cell-based; settings: treated groups, FIG. 6
Description: as §1
Whilst, the expression of VRGF that is a strong vascular hyperpermeability factor was suppressed in the treated groups. […] In this case, a value of the expression of each of non-treated groups is used as an inner control, and an amount of the expression of the treated groups is calculated from the concentration on the gel and the area. […] The experimental groups in FIG. 6 are as follows, and the upper figure indicates the photographs of the gel, the lower figure indicates visualized differences of relative amounts obtained by the quantification thereof.

[4] = test system: vascular endothelial cells; assay: Direct treatment of vascular endothelial cells in the absence of astrocyte; assay type: cell-based; settings: FIG. 8
Excerpt: It is known that the vascular endothelial cells also have retinoid receptors, and accordingly, there remains a possibility that atRA contained in the cell culture medium effected directly on the vascular endothelial cells during the co-culture. However, when a recombinant protein of GDNF was directly effected on the vascular endothelial cells in the absence of astrocyte, the increase in TER and the decrease in the permeability were induced (*p<0.05), whilst these changes were not observed when the cells were treated with atRA (FIG. 8).

GDNF [5] = assay: GDNF expression by atRA treatment in human glioma cells (quantitative RT-PCR, Southern blot); assay type: cell-based; settings: U373MG cells
Description: U373MG cells were cultured in a relatively dense state, and were treated with 10 nM or 100 nM of all-trans retinoic acid (atRA). mRNA was extracted from the cells and subjected to quantitative RT-PCR, and then changes in the gene expression were analyzed and quantified by the Southern blot method. Reverse transcription was performed by using a kit manufactured by Invitrogen. The reagents were prepared according to the manufacturer's instructions, and reacted at 42° C. for 30 minutes. The product was used for PCR after denaturation of reverse transcriptase at 96° C. for 5 minutes. For the PCR reaction, each reagent manufactured by TaKaRa was prepared by mixing according to the manufacturer's instructions, and the following reactions were performed:
1) 94° C., 30 seconds 2) 94° C., 15 seconds 3) 52° C., 15 seconds 4) 72° C., 30 seconds 5) repeat of the reactions from 2) to 4) for 32 times 6) 72° C., 7 minutes
The final reaction product was used for the Southern blot test.

[6] = test system: vascular endothelial cells obtained from the bovine brain; assay: Barrier function of vascular endothelial cells co-cultured with atRA-treated U373MG cells (transwell double chamber); assay type: cell-based; settings: p<0.05
Description: In order to evaluate whether or not the alteration induces physiological reactions, co-cultivation with vascular endothelial was performed. […] As can be understood from FIG. 3, the […] cells (astrocytes) were grown as effector cells in the outer chamber, and treated with atRA and cultured for additional 24 hours. In the inner chamber separately prepared, vascular endothelial cells obtained from the bovine brain were cultured to prepare beforehand for forming a dense single layer cell-sheet.
The outer chamber with U373MG cells and the inner chamber with the vascular endothelial cells were jointed to start the co-culture for evaluation of the barrier function that is a tight-function of the vascular endothelial cells. […] In this experiment, as functional alterations of the vascular endothelial cells by the influence of the astrocyte, the difference in electrical resistance inside and outside of the vascular endothelial cells, and the mobility to the outer chamber of the labeled substance (^14C-labeled) added in the inner chamber were evaluated as indexes as the vascular permeability. The activity of the transferred radioactive substance is indicated as dpm (disintegrations per minutes).

[7] = relative to non-treated group, p<0.05
[8] = 14C-labeled, co-culture with atRA-treated U373MG cells

## CC1(C)CCC(C)(C)c2cc(C(=O)Nc3ccc(C(=O)O)cc3)ccc21 [Am580, 4-[(5,6,7,8-tetrahydro-5,5,8,8-tetramethyl-2-naphthalenyl)carboxamide]benzoic acid]
Diabetic model mice; middle stage diabetic group, Am580 3.75 mg/kg
  effectiveness on vascular hyperpermeability (amount of FITC in the eyes): higher effectiveness than atRA
[1]; relative to non-treated group defined as 1, p<0.05
  TER: more effective than atRA, and much effective than Am80
[1]; [7]
  intercellular permeability (inulin): most effectively suppressed
  intercellular permeability (mannitol): most effectively suppressed
GDNF [2]
  GDNP expression: significantly increases
  suppression of the vascular permeability (expression of GDNF divided by expression of VEGF): about three-fold
  expression of GDNF mRNA: induced the expression of GDNF mRNA in a dose-dependent and time-dependent manner
GDNF [3]
  inhibition of the effect of AGE-2 to suppress the expression of GDNF, protein level: strongly inhibited
  inhibition of the effect of AGE-2 to suppress the expression of GDNF, mRNA level: strongly inhibited
VEGF
  expression of VRGF: suppressed

## CC1=C(/C=C/C(C)=C/C=C/C(C)=C/C(=O)O)C(C)(C)CCC1 [atRA, all-trans retinoic acid]
Diabetic model mice; diabetic mice, compared to the non-treated group
  urine sugar (US): Significantly lower
[4]
  TER: not observed
  permeability: not observed
GDNF [2]
  GDNP expression: significantly increases
  suppression of the vascular permeability (expression of GDNF divided by expression of VEGF): about three-fold
  expression of GDNF mRNA: induced the expression of GDNF mRNA in a dose-dependent and time-dependent manner
GDNF [3]
  inhibition of the effect of AGE-2 to suppress the expression of GDNF, protein level: strongly inhibited
  inhibition of the effect of AGE-2 to suppress the expression of GDNF, mRNA level: strongly inhibited
VEGF
  expression of VRGF: suppressed
GDNF [5]
  time at which the increase in GDNF expression reached a plateau level: about 3 hours
GDNF [5]; 10 nM or 100 nM, after 3 hours and 24 hours
  GDNF mRNA level expression: increased in relation to the elevated concentration
[6]; [8]
  permeability of inulin (5 kDa): significantly suppressed
  permeability of mannitol (182 Da): significantly suppressed
[6]; co-culture with U373MG cells treated with atRA
  TER (transepithelial electrical resistance), barrier function of the vascular endothelial cells: enhanced

B1: recombinant protein of GDNF: recombinant glial cell line-derived neurotrophic factor (protein, UniProt P39905 78-211, looked up)
Glial cell line-derived …: SPDKQMAVLPRRERNRQAAAANPENSRGKGRRGQRGKNRGCVLTAIHLNVTDLGLGYETKEELIFRYCSGSCDAAETTYDKILKNLSRNRRLVSDKVGQACCRPIAFDDDLSFLDDNLVYHILRKHSAKRCGCI
[4]
  TER: increase
  permeability: decrease

— patent US20090281184A1, “PHARMACEUTICAL FOR PREVENTION AND TREATMENT OF OPHTHALMIC DISEASE INDUCED BY IN-CREASE IN VASOPERMEABILITY” (SAPPORO MEDICAL UNIVERSITY, priority 2005, published 2009)
